The values that follow come from patent US20180071242A1, “SUBSTITUTED ACYLANILIDES AND METHODS OF USE THEREOF” (University of Tennessee Research Foundation, priority 2006, published 2018).

For data set [1], the target named is T1, CYP2C19 (Homo sapiens, UniProt P33261).
T1 construct: purchased Gentest, BD Biosciences
Put plainly: CYP inhibition screening, recombinant enzyme (fluorescent-based) assay. As to conditions: for Inhibition of CYP2C19 activity (in words): human, human cDNA-expressed (recombinant) CYP2C19, 30 min. The class given is in vitro ADME.

Data set [2] deals with T2, CYP2C9 (Homo sapiens, UniProt P11712).
T2 construct: purchased Gentest, BD Biosciences
T2 sequence (P11712 whole entry): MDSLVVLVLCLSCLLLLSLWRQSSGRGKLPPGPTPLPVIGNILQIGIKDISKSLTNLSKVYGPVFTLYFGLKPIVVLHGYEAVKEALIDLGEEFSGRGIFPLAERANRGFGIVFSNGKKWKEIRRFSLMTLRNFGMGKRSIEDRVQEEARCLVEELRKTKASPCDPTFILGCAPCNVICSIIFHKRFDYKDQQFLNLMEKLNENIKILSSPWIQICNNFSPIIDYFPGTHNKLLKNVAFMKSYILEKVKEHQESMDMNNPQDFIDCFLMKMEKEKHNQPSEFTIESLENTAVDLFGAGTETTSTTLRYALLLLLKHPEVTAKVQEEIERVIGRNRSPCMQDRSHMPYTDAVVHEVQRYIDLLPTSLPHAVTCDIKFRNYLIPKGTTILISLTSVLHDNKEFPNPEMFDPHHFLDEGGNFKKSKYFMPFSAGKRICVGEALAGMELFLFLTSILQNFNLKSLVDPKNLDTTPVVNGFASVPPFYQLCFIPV
Described as above. The class given is in vitro ADME. To be noted: for Inhibition of CYP2C9 activity (in words): human, 30 min.

Data set [3] concerns the target T3, ER-α (Rattus norvegicus, UniProt P06211).
T3 construct: expressed in transfected cells; host or cells: HEK-293
T3 sequence (P06211 1-600): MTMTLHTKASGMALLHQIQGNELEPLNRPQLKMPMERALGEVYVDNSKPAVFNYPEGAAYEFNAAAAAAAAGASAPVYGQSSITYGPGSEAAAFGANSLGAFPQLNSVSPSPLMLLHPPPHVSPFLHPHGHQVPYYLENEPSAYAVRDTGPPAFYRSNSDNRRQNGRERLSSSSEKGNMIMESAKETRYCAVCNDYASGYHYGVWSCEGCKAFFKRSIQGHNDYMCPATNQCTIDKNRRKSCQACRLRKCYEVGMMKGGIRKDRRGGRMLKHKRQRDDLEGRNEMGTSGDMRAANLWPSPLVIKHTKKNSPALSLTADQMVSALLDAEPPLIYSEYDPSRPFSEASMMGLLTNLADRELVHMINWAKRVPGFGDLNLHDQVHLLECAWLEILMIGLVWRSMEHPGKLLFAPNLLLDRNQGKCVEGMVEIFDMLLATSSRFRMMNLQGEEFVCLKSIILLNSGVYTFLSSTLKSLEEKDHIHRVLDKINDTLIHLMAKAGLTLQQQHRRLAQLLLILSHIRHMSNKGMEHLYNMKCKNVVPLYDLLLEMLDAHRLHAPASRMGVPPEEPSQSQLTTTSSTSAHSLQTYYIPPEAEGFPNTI
In words: Transient transfection luciferase transactivation assay in HEK-293 cells. The class given is cell-based. To be noted: for ER-α transactivation, agonist mode (in words): up to the highest tested concentration (1 μM); for Inhibition of estradiol-induced ER-α activity, antagonist mode (in words): with 1 nM estradiol.

The target in data set [4] is T4, MR (Rattus norvegicus, UniProt P22199).
T4 construct: expressed in transfected cells; host or cells: HEK-293
T4 sequence (P22199 1-981): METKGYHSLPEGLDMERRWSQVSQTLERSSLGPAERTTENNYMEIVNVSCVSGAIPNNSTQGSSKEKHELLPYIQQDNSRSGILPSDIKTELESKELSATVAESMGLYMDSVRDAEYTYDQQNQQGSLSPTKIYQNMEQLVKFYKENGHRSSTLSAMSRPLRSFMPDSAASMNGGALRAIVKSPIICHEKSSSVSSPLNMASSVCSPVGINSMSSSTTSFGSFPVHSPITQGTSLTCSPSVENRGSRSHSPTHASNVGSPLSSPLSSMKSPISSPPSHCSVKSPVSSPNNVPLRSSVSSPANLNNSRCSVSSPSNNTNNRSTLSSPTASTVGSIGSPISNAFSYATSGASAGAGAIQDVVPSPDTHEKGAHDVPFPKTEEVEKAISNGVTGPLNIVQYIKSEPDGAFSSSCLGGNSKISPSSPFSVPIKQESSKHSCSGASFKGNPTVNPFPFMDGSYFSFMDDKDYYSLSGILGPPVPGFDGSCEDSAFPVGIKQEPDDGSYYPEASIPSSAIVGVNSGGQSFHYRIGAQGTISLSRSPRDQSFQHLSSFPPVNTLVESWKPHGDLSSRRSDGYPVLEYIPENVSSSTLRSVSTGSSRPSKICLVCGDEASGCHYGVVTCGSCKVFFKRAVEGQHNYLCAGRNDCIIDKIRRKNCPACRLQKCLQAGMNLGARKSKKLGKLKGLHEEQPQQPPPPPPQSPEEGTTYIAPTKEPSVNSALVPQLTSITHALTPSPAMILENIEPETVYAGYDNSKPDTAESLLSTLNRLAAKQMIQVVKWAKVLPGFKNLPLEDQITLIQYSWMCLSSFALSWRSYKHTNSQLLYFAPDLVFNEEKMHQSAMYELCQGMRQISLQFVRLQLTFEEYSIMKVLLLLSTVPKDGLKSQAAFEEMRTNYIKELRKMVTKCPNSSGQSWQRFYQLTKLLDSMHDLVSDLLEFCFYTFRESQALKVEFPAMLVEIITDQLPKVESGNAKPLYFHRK
Described as above. The class given is cell-based. To be noted: for MR-mediated transactivation, agonist mode (in words): all tested concentrations; for Inhibition of aldosterone-induced MR-mediated transactivation, antagonist mode (in words): with 1 nM aldosterone.

Data set [5] has as its target T5, CYP3A4 (Homo sapiens, UniProt P08684).
T5 construct: purchased Gentest, BD Biosciences
Put plainly: CYP inhibition screening, recombinant enzyme (fluorescent-based) assay. The class given is in vitro ADME.

Data set [6] has as its target T6, ER-β (Rattus norvegicus, UniProt Q62986).
T6 construct: expressed in transfected cells; host or cells: HEK-293
Put plainly: Transient transfection luciferase transactivation assay in HEK-293 cells. The class given is cell-based. As to conditions: for ER-β transactivation, agonist mode (in words): up to the highest tested concentration (1 μM); for Inhibition of estradiol-induced ER-β activity, antagonist mode (in words): with 1 nM estradiol.

For data set [7], the target named is T7, CYP1A2 (Homo sapiens, UniProt P05177).
T7 sequence (P05177 1-516): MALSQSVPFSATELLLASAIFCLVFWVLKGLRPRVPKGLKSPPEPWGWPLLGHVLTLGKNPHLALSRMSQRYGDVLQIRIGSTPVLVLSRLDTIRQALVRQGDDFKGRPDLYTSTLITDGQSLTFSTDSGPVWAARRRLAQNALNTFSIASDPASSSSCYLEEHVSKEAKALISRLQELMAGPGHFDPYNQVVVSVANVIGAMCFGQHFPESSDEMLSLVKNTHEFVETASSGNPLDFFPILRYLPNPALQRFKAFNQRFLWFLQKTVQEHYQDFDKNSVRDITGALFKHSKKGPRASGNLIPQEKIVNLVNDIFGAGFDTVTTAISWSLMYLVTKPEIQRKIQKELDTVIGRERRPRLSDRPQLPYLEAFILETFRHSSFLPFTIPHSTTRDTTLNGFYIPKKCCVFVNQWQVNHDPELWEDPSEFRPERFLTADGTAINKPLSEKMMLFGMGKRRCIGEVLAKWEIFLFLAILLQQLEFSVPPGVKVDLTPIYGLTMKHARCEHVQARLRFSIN
In words: CYP inhibition screening, recombinant enzyme (fluorescent-based) assay. The procedure: (§1) Human recombinant CYP enzymes and fluorescence-based substrates were used to determine the IC50 values of S-(I) against CYP3A4, 2D6, 2C19, 2C9, and 1A2.
(§2) CYP inhibition screening procedures were performed essentially according to the manufacturer's instructions (Gentest, BD Biosciences, Waltham, Mass.). Briefly, CYP enzyme inhibition was measured using human cDNA-expressed CYP3A4, 2D6, 2C19, 2C9, and 1A2 enzymes. Analogs of the model substrate coumarin were utilized for each isoenzyme.
(§3) The concentration of acetonitrile was kept constant at 0.4%, and the reaction was carried out at 37° C. for 30 minutes.
(§4) For IC50 determination, data was fitted using the non-linear regression equation “sigmoidal dose response, variable slope” defined as: Y=Bottom+(Top-Bottom)/(1+10̂((Log EC50−X)*HillSlope)) where X is the logarithm of concentration of the indicated compound, and Y is the response.

The target of data set [8] is CYP2D6 (Homo sapiens, UniProt P10635). Described as above. Here is the method:
as §1, §2, §3, §4

T5 sequence (P08684 whole entry): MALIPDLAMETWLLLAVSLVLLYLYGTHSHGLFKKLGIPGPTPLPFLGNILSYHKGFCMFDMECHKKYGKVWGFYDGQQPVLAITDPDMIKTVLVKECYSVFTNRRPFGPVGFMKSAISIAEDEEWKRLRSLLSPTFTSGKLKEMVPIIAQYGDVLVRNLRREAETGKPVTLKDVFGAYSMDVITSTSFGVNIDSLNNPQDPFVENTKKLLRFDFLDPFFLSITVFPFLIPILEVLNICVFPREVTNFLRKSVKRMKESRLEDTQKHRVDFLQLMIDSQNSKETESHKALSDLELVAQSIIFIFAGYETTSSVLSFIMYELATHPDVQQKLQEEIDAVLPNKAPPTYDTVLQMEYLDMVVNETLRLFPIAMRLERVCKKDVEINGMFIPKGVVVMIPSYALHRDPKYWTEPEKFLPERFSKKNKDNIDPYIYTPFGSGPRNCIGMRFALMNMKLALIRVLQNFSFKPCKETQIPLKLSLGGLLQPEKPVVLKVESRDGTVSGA
T1 sequence (P33261 whole entry): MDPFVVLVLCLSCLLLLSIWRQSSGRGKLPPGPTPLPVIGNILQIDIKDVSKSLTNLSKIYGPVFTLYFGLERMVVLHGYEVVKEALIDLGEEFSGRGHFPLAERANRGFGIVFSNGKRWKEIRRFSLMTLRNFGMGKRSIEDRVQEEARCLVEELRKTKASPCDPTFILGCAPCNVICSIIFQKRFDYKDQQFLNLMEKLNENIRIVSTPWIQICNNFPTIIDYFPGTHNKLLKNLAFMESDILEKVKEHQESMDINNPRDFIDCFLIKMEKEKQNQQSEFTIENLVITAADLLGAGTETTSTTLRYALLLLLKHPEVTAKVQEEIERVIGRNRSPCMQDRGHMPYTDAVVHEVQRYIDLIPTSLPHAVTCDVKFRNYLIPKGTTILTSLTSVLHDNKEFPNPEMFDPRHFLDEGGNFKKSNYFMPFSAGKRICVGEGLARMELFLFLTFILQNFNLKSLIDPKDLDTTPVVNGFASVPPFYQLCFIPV
T6 sequence (Q62986 whole entry): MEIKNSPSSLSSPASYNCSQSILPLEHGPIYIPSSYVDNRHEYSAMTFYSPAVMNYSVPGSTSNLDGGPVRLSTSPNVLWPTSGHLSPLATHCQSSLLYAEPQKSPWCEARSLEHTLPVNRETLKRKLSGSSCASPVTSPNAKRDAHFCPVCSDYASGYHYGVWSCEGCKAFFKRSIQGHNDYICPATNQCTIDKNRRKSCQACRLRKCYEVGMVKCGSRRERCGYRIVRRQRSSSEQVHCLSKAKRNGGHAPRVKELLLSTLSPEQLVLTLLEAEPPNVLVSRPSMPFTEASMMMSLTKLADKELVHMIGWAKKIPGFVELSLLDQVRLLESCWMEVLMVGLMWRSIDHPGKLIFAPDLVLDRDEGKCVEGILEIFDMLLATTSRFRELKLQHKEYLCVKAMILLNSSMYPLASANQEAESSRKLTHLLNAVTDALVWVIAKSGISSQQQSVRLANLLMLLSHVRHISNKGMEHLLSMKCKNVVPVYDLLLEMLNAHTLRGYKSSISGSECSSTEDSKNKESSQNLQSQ
Chain of CYP2D6 (P10635 whole entry): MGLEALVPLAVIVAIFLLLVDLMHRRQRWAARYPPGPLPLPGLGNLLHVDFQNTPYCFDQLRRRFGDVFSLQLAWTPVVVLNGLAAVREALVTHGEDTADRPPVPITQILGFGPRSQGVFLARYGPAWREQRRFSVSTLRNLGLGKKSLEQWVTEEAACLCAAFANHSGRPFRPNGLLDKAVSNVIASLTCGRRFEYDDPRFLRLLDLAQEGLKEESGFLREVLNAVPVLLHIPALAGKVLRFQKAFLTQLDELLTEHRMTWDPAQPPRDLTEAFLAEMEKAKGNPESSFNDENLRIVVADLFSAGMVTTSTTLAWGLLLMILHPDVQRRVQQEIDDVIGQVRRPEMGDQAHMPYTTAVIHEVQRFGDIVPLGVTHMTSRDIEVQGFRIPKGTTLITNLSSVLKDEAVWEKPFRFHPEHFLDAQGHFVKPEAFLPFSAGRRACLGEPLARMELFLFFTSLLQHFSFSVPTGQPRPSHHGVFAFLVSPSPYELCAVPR

As a reminder, the IC50 is the point on the concentration scale where inhibition reaches its midpoint. On to `C[C@](O)(COc1ccc(F)cc1)C(=O)Nc1ccc(C#N)c(C(F)(F)F)c1` [S-(III)], for which, in data set [1], the half-inhibitory concentration (IC50) turned out to be 0.1 µM and the “Inhibition of CYP2C19 activity (in words)” value was “moderate inhibition”. Further, in data set [2], the IC50 came out at 1.3 µM and the “Inhibition of CYP2C9 activity (in words)” value was “moderate inhibition”. Besides, in data set [3], the “ER-α transactivation, agonist mode (in words)” value (from here on “ER-α transactivation”) is on record as “failed to activate” and the “Inhibition of estradiol-induced ER-α activity, antagonist mode (in words)” value is “failed to alter”. In data set [4], the “MR-mediated transactivation, agonist mode (in words)” value is “did not induce” and the “Inhibition of aldosterone-induced MR-mediated transactivation, antagonist mode (in words)” value is reported as “not inhibited”. Besides, the IC50 in data set [5] is more than 20 µM. In data set [6], the “ER-β transactivation, agonist mode (in words)” value (shortened to “ER-β transactivation”) was “failed to activate” and the “Inhibition of estradiol-induced ER-β activity, antagonist mode (in words)” value is given as “failed to alter”. Further, in data set [7], the IC50 was more than 20 µM. For the same compound, in data set [8], the 50% inhibitory concentration (IC50) is more than 20 µM.
Take `C[C@](O)(COc1ccc(C#N)cc1)C(=O)Nc1ccc(C#N)c(Cl)c1` [S-(I), (S)—N-(3-chloro-4-cyanophenyl)-3-(4-cyanophenoxy)-2-hydroxy-2-methylpropanamide]: the concentration for half-maximal inhibition (IC50) in data set [1] is more than 20 µM. For the same compound, in data set [2], the half-inhibitory concentration (IC50) is 5.1 µM and the “Inhibition of CYP2C9 activity (in words)” value is reported as “did not appreciably inhibit”. Further, in data set [3], the “ER-α transactivation” value is on record as “failed to activate” and the “Inhibition of estradiol-induced ER-α activity, antagonist mode (in words)” value is on record as “failed to alter”. In data set [4], the “MR-mediated transactivation, agonist mode (in words)” value is listed as “failed to activate” and the “Inhibition of aldosterone-induced MR-mediated transactivation, antagonist mode (in words)” value is “failed to alter”. Further, the IC50 in data set [5] was more than 20 µM. In data set [6], the “ER-β transactivation” value is “failed to activate” and the “Inhibition of estradiol-induced ER-β activity, antagonist mode (in words)” value is “failed to alter”. The IC50 in data set [7] is more than 20 µM. The IC50 in data set [8] was more than 20 µM.
For `C[C@](O)(COc1ccc(Cl)cc1)C(=O)Nc1ccc(C#N)c(C(F)(F)F)c1` [S-(II)], in data set [1], the IC50 was found to be 0.1 µM and the “Inhibition of CYP2C19 activity (in words)” value is reported as “moderate inhibition”. Besides, in data set [2], the IC50 turned out to be 3.8 µM and the “Inhibition of CYP2C9 activity (in words)” value is recorded as “moderate inhibition”. Also, in data set [3], the “ER-α transactivation” value was “failed to activate” and the “Inhibition of estradiol-induced ER-α activity, antagonist mode (in words)” value is recorded as “failed to alter”. Also, in data set [4], the “MR-mediated transactivation, agonist mode (in words)” value is “did not induce” and the “Inhibition of aldosterone-induced MR-mediated transactivation, antagonist mode (in words)” value is “not inhibited”. Moreover, the IC50 in data set [5] was more than 20 µM. Also, in data set [6], the “ER-β transactivation” value is “failed to activate” and the “Inhibition of estradiol-induced ER-β activity, antagonist mode (in words)” value was “failed to alter”. The concentration for half-maximal inhibition (IC50) in data set [7] is more than 20 µM. The concentration for half-maximal inhibition (IC50) in data set [8] was more than 20 µM.
